# What was measured:
# [1] = test system: human zygotes; test: DNA damage foci immunostaining in human zygotes/parthenotes; type: cell-based
# Experimental: (§1) Embryos, mouse and human, were cultured in Global Total (Life-Global) for the duration of the experiments and with added compounds as outlined below. Incubation in RNA polymerase inhibitors triptolide (1 mM) or alpha amanitin (20 mg/ml) was performed from the 2PN stage (day1) to day3 of human development. Incubation in aphidicolin was performed at 2 mM. […] Mirin was used at a concentration of 50 mM. Olaparib was used to inhibit PARP at a concentration of 10 mM. All experiments were conducted during incubation at 37° C. with 5% CO2 and 19-20% O2. Chemical stock solutions were prepared in DMSO at concentrations at least 1000× higher than the final concentration.
# Artificial activation of human MII oocytes was performed using two pulses of 2.7 kV/cm at 50 ms using ECFG21 (Nepagene) in fusion buffer consisting of 0.25 M d-sorbitol buffer containing 0.1 mM calcium acetate, 0.5 mM magnesium acetate, 0.5 mM HEPES, and 1 mg ml^−1 fatty-acid-free BSA as previously described (Tachibana et al., 2013). Thereafter, oocytes were incubated for 3.5-4 h in 10 mg/ml puromycin, followed by a wash step and following culture in Global total.
# (§2) Following the experimental exposures, mouse and human embryos were fixed in 2% paraformaldehyde (PFA) and 0.25% Triton X-100 in PBS for 10 minutes at room temperature, serially washed in phosphate-buffered solution (PBS) at room temperature, then stored in PBS at 4° C. until staining and imaging. Embryos were placed in 10-20 ml droplets of primary antibody solution within plastic tissue culture dishes covered with mineral oil for 1 hour at room temperature, serially washed (×2) in PBS containing 0.01% Triton X-100 to prevent embryos sticking to oil, then transferred to 10-20 ml secondary antibody solution and Hoechst (dilution 1:500) for 30 minutes. Embryos were then serially washed (×2) and placed in 5 ml droplets of PBS with 0.5% serum albumin in uncoated glass bottom dishes (Mattek) covered with embryo culture oil for imaging. The following primary antibodies were used across experiments as described above: Oct-4, γH2AX, RPA32, RPA32 S4/S8, RPA32 S33, 53BP1, RAD51, Centromere, and phospho-CHK1. […] The appropriate secondary antibodies conjugated with Alexa Fluor 488, Alexa Fluor 555, CF 568, or Alexa Fluor 647 were diluted at 1:500-1:1000. Ethynyl deoxyuridine (EdU) labeling of zygotes and embryos was performed using the labeling kit (Thermo Fisher Scientific) as described by the manufacturer. 10 mM EdU was added to culture medium for 1 h at the indicated time points, and cells were harvested and fixed thereafter. 5-ethynyl uridine (EU) labeling was performed by incubating day3 cleavage stage embryos for 4 hours in Global total containing 0.2 mM EU.
# (§3) Embryos were imaged with confocal microscopy using a Zeiss LSM (LSM 710) at a magnification of 63× and the Zeiss Zen software. Images were obtained using 488-, 543- and 633-nm lasers and bright-field microscopy. The number of confocal sections was adjusted to capture the entire nucleus or the entire embryo according to the experimental design as described above. Cell numbers and staining foci numbers were counted manually. Nuclei were identified by the presence of Hoechst33342. Foci were identified if at least 3× greater intensity than nuclear average, spherical in appearance, and overlapping with Hoechst33342 staining. Inner cell masses were identified by the presence of Oct4 within a blastocyst embryo. Active DNA replication was identified by the presence of EdU. DNA damage was identified by the detection of γH2AX and RPA foci within the nucleus. Mechanisms of DNA repair were identified through the detection of RPA S4/S8, RPA S33, Rad51 and 53BP1 foci within the nucleus.
# [2] = molecular target: ATR (Homo sapiens, UniProt Q13535); conditions: cited from earlier work
# Chain of ATR (Q13535 whole entry): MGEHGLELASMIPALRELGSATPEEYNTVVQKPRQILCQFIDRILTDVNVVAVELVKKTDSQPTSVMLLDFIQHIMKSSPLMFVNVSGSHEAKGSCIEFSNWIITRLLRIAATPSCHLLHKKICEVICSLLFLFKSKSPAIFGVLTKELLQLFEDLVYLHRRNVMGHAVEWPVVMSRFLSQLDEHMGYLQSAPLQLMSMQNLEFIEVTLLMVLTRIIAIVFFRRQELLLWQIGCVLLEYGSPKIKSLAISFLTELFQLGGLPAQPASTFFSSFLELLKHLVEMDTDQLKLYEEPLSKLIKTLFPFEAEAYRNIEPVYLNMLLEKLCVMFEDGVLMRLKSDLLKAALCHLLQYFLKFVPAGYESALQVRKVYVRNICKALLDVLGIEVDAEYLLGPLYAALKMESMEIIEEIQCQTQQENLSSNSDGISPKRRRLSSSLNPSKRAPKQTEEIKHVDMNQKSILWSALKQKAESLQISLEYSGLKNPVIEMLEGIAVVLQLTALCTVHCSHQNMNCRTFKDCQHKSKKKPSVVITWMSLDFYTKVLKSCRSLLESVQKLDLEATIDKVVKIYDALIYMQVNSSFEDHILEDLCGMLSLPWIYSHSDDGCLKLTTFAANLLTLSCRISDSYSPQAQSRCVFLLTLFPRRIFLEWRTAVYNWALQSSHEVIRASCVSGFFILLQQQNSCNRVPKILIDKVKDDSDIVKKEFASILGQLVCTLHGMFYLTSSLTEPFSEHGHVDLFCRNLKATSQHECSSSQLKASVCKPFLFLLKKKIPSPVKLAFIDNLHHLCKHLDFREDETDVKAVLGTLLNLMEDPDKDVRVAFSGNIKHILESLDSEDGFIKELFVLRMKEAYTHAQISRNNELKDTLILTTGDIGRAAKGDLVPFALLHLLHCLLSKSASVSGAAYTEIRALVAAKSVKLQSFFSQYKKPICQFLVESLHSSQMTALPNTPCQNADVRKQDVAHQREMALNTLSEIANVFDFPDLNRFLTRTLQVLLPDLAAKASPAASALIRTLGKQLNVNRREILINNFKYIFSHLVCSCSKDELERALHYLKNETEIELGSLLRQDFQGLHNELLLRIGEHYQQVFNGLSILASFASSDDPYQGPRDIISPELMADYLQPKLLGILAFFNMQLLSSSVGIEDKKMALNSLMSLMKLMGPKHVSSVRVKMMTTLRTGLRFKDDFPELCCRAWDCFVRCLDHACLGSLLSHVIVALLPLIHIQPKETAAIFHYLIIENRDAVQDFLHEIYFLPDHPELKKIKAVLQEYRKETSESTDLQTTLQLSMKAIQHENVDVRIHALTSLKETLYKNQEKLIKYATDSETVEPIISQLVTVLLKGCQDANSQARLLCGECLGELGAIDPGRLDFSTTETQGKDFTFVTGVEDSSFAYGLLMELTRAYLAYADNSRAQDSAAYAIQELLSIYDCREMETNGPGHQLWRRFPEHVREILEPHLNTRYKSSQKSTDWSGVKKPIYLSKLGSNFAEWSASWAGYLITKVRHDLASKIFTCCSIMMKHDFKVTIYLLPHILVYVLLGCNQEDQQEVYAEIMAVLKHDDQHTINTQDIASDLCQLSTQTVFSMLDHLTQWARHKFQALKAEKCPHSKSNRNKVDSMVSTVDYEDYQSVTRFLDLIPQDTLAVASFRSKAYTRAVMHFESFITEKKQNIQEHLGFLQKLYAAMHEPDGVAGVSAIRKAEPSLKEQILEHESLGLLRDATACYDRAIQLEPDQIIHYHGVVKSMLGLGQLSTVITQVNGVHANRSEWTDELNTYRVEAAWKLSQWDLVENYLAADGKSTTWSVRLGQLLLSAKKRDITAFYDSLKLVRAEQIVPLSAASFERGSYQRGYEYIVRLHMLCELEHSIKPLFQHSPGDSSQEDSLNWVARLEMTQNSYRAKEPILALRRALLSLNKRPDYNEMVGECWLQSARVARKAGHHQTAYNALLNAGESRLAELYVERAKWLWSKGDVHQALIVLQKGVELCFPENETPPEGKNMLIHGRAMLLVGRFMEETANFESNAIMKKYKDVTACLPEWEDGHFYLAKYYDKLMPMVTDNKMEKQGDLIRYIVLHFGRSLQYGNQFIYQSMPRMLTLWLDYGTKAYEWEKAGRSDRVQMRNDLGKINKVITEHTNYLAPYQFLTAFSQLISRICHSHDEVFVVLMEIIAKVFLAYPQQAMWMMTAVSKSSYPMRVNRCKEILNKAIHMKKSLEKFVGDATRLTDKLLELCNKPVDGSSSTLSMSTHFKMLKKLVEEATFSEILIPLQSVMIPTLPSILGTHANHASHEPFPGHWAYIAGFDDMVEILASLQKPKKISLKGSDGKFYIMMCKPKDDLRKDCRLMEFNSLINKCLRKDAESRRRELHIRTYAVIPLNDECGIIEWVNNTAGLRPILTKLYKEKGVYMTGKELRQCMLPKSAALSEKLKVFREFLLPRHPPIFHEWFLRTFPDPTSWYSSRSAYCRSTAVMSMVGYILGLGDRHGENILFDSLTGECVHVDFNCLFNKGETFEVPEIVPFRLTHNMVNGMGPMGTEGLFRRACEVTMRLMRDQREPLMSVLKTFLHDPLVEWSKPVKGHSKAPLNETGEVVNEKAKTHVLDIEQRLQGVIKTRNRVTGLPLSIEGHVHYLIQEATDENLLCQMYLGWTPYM
# Chain of ATR (Q8WXE1 whole entry partner): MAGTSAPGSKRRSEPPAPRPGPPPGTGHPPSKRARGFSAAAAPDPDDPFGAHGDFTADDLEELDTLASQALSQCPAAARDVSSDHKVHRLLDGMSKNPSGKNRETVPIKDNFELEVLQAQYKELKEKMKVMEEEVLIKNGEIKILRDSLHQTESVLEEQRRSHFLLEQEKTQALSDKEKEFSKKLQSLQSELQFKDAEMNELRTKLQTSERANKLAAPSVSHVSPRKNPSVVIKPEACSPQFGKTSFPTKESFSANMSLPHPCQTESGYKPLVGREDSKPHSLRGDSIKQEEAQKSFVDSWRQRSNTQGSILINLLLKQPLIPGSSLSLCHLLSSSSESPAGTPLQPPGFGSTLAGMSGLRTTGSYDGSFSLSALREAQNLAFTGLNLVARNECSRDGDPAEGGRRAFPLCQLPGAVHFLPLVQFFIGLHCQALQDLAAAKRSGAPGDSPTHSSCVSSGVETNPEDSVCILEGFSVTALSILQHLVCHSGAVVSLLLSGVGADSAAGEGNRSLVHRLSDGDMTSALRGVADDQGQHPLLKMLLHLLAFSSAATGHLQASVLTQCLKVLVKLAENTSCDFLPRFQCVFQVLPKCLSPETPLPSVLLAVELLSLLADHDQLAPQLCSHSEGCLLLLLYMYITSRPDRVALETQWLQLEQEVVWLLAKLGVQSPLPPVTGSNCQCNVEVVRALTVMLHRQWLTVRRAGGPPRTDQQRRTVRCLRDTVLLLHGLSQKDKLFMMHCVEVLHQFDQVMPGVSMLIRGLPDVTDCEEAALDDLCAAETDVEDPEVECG
# [3] = test system: mouse embryos; test: mouse preimplantation development and embryo quality; type: cell-based
# Experimental: as §1
# (§4) Mouse oocytes were activated at 1-6 hours post retrieval using 2 mM ionomycin (Sigma Aldrich) in Global Total medium for 5 minutes at 37° C. followed by culture in 10 mM puromycin and 5 mg/ml cytochalasin B for 3 hours, then cytochalasinB only for 2 hours and 10 minutes to prevent second polar body extrusion.
# as §2, with “phospho-CHK1. Phospho-specific antibodies were quality controlled through ATR dependence of foci formation in mouse zygotes, and for γH2AX also in human zygotes.” for “phospho-CHK1.”
# as §3
# [4] = test system: mouse 2-cell embryos; test: single-cell sequencing chromosome content analysis, mouse 2-cell embryos; type: cell-based; conditions: mouse embryos, Wee1 kinase inhibitor added alongside aphidicolin
# Experimental: as §1
# Single cells from blastomeres were collected on the heated stage (Tokai Hit) of an Olympus IX71 inverted microscope equipped with Narishige micromanipulators and a zona pellucida laser (Hamilton-Thorne). Single nuclei were isolated from blastomeres by lysis and dissection of different nuclei using two […] diameter Piezo micropipettes and Holding pipette (Origio). Single embryo cells or nuclei were placed manually in single wells of a 96-well plate containing 9 ml of lysis buffer, prepared as a master mix of 798 ml H2O, 6 ml of 10 mg/mL Proteinase K solution (Sigma-Aldrich), and 96 ml 10× Single Cell Lysis and Fragmentation buffer (Sigma-Aldrich). Single cells/single nuclei were lysed by heating 96-well plates containing single cells/single nuclei at 50° C. for 1 hour, followed by incubation at 99° C. for four minutes using a PCR thermocycler. Single-cell/single-nuclei whole genome amplification (WGA) using degenerate oligo-nucleotide priming PCR (DOP-PCR) was performed using the SEQPLEX Enhanced DNA Amplification Kit (SEQXE, Sigma) according to the manufacturer's instructions. In addition, a modified version of the DOP-PCR protocol that allows inline indexing of WGA DNA was also applied. WGA DNA was subsequently processed for Illumina library sequencing preparation using standard TruSeq indexing methods via the NEBNext Ultra II DNA Library Prep Kit for Illumina (New England Biolabs). NEBNext Multiplex Oligos for Illumina (96 index primers) were used for four amplification cycles. Library DNA was quantified using Qubit dsDNA HS Assay Kit (Invitrogen, Carlsbad, CA, USA) and library size distribution was confirmed using a 2100 Bioanalyzer DNA 1000 Kit (Agilent, Santa Clara, CA, USA). A unimodal curve centered around 300-500 bp was scored as a successful library preparation. Subsequently, 30 mL of each pooled library was sent for sequencing at a concentration of 20 ng/ml. Mutiplex sequencing was performed using Illumina HiSeq 2500 single end indexed run (SR100) while targeting a coverage of approximately 1 million reads per cell/nuclei, sufficient for quantitative genome-wide copy number analysis.
# Analysis of DNA sequencing data was performed as previously described (Baslan et al., 2015) with minor modifications as outlined below. Briefly, multiplex sequencing data were demultiplexed according to unique barcodes with reads assigned to their respective single-cell or single-nuclei. Unique reads were aligned to the reference human and mouse genome builds, hg19 and mm9, respectively. Each genome was partitioned into 5000 bins using a previously described algorithm (Varbin) that corrects for genome sequence mappability (Baslan et al., 2012; Navin et al., 2011). Uniquely mapped reads were sorted, indexed and subsequently counted within the partitioned genomic bins. For single-cell copy number inference, read count data were normalized genome-wide followed by CBS segmentation (Olshen et al., 2004) and transformed into integer copy number states using a least-squares fit approach (Baslan et al., 2015).
# [5] = test system: mouse 1-cell embryos; test: timing of mitotic entry in mouse 1-cell embryos; type: cell-based; conditions: G2 phase mouse embryos, compared with untreated controls
# Experimental: as §1, §4
# [6] = test system: mouse zygotes; test: DNA damage foci immunostaining in mouse zygotes/embryos; type: cell-based; conditions: mouse zygotes, mirin combined with aphidicolin
# Experimental: as §1, §4
# as §2, with “phospho-CHK1. Phospho-specific antibodies were quality controlled through ATR dependence of foci formation in mouse zygotes, and for γH2AX also in human zygotes.” for “phospho-CHK1.”
# as §3
# [7] = test system: human embryos; test: nucleation and development of human embryos; type: cell-based; conditions: 2PN zygotes incubated days 1 to 3, versus untreated cleavage-stage embryos
# From the text: Cryopreserved human cleavage-stage and blastocyst embryos and unfertilized oocytes were anonymously donated from individuals and couples who provided consent for use in research. Embryos were of good quality and had been cryopreserved for potential clinical use but were then no longer needed and donated for research. The cause of treatment is not disclosed. Range of maternal age of donated embryos is between 27-43. Embryos of both sexes were used, as provided by the unbiased fertilization of oocytes with sperm carrying either a Y or X chromosome. Cleavage stage embryos were thawed using the one-step thaw protocol using Global total with HEPES. Blastocyst stage embryos were thawed using the Quinn's Advantage thaw kit, then exposed to experimental conditions as outlined below. Vitrified embryos were thawed with the ECMPC warming solution set. Embryo culture was performed in Global Total. All experiments were conducted during incubation at 37° C. with 5% CO2 and 20% 02.
# as §1
# (§5) Following the experimental exposures, mouse and human embryos were fixed in 2% paraformaldehyde (PFA) and 0.25% Triton X-100 in PBS for 10 minutes at room temperature, serially washed in phosphate-buffered solution (PBS) at room temperature, then stored in PBS at 4° C. until staining and imaging. Embryos were placed in 10-20 ml droplets of primary antibody solution within plastic tissue culture dishes covered with mineral oil for 1 hour at room temperature, serially washed (×2) in PBS containing 0.01% Triton X-100 to prevent embryos sticking to oil, then transferred to 10-20 ml secondary antibody solution and Hoechst (dilution 1:500) for 30 minutes. Embryos were then serially washed (×2) and placed in 5 ml droplets of PBS with 0.5% serum albumin in uncoated glass bottom dishes (Mattek) covered with embryo culture oil for imaging. […]
# Embryos were imaged with confocal microscopy using a Zeiss LSM (LSM 710) at a magnification of 63× and the Zeiss Zen software. […] Cell numbers and staining foci numbers were counted manually. […]
# [8] = test system: human embryos; test: ethynyl uridine label incorporation in human embryos; type: cell-based; conditions: incubation from days 1 to 3
# Experimental: as §1
# as §5, with “minutes.” for “minutes. Embryos were then serially washed (×2) and placed in 5 ml droplets of PBS with 0.5% serum albumin in uncoated glass bottom dishes (Mattek) covered with embryo culture oil for imaging.”
molecule,measurement,setting,value
CS(=O)(=O)c1ccc(-c2cnc(N)c(C(=O)Nc3ccccc3)n2)cc1 [ATR45],number of γH2AX foci,"[1]; parthenogenetically activated oocytes, inhibitor from 14-18 h into the first cell cycle, relative to controls",reduced significantly
same,selectivity over related kinases ATM or DNA-PK,[2],> 600 ×
C=CCn1c(=O)c2cnc(Nc3ccc(N4CCN(C)CC4)cc3)nc2n1-c1cccc(C(C)(C)O)n1 [Wee1 kinase inhibitor],developmental potential,"[3]; treatment in G2 phase, compared with untreated controls",impaired
same,genome after mitosis,[4],highly fragmented genome
same,advance of mitosis,[5],1.5 h
N=C1NC(=O)/C(=C/c2ccc(O)cc2)S1 [mirin],"number of RAD51 foci, average","[1]; human zygotes, combined exposure to aphidicolin and mirin",50 sites
same,number of Rad51 foci,[6],more than 50
same,number of foci marked by γH2AX,[6],more than 100
CC(C)[C@]12O[C@H]1[C@@H]1O[C@]13[C@]1(O[C@H]1C[C@H]1C4=C(CC[C@@]13C)C(=O)OC4)[C@@H]2O [triptolide],micronucleation,[7],comparable
same,mouse embryos developed beyond the two-cell stage,[3]; in the presence of the inhibitor,0/15
same,embryos showing ethynyl uridine label incorporation,[8],0/4
a-amanitin,micronucleation,[7],comparable

# From patent publication US20250034520A1, “INCREASING DEVELOPMENTAL POTENTIAL OF HUMAN PREIMPLANTATION EMBRYOS BY REDUCING GENETIC INSTABILITY, ANEUPLOIDIES AND CHROMOSOMAL MOSAICISM” (THE TRUSTEES OF COLUMBIA UNIVERSITY IN THE CITY OF NEW YORK, priority 2022, published 2025)
